According to patent US7923561B2 (Hoffmann-La Roche Inc., priority 2006, dated 2011):

Experiments:
[1] = target: T1, recombinant human 5-HT5A receptor (Homo sapiens, UniProt P47898); assay: [3H]LSD radioligand binding assay, membranes of HEK-EBNA cells transiently expressing 5-HT5A receptors; details: [3H]LSD approx. 1 nM, SPA beads, 120 min at room temperature; Ki from IC50 by Cheng-Prussoff equation
T1 construct: expressed in transfected cells; host or cells: HEK-EBNA (Human Embryonic Kidney-EBNA) cells, transient cDNA expression, membranes
Protocol: A [^3H]LSD radioligand binding assay was used to determine the affinity of the compounds for the recombinant human 5-HT5A receptor, in membranes from transiently (cDNA) expressed 5-HT5A receptors in Human Embryonic Kidney-EBNA (HEK-EBNA) cells. Assay buffer consisted of Tris (50 mM) buffer containing 1 mM EGTA, 10 mM MgCl2 (pH 7.4) and 10 μM pargyline. The binding assay was carried out in 96-well-plates in the presence of [^3H]LSD (approximately 1 nM), approximately 2 μg/well of membrane protein, and 0.5 mg of Ysi-poly-1-lysine SPA beads in a final volume of 200 μl of buffer. Non-specific binding was defined using methiothepin 2 μM. Compounds were tested at 10 concentrations. All assays were conducted in duplicate and repeated at least two times. Assay plates were incubated for 120 min at room temperature before centrifugation. Bound ligand was determined using a Packard Topcount scintillation counter. IC50 values were calculated using a non-linear curve fitting program and Ki values calculated using the Cheng-Prussoff equation.

T1 sequence (P47898 whole entry): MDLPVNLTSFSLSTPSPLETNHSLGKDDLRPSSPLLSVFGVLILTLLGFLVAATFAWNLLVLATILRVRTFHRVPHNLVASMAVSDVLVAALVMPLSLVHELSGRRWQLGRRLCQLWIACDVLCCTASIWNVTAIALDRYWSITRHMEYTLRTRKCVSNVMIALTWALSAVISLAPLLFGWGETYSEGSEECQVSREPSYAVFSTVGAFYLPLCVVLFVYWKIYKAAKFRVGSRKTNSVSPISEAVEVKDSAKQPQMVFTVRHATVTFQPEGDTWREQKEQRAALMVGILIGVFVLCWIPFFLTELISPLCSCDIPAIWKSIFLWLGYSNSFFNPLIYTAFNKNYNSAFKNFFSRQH

SMILES | melting point [°C] | Ki [1] [nM]
ON=C(c1ccc(F)cc1)c1cccc2nc(N[C@@H]3CCc4ccccc43)ccc12 [Example 89, (4-Fluoro-phenyl)-[2-((R)-indan-1-ylamino)-quinolin-5-yl]-methanone oxime] | 184 | 2.3
Cc1nc(-c2cccc3nc(N[C@@H]4CCc5ccccc54)ccc23)no1 [Example 79, (R)-Indan-1-yl-[5-(5-methyl-[1,2,4]oxadiazol-3-yl)-quinolin-2-yl]-amine] | 105 | 134
ON=C(c1ccc(Cl)cc1)c1cccc2nc(N[C@@H]3CCc4ccccc43)ccc12 [Example 92, (4-Chloro-phenyl)-[2-((R)-indan-1-ylamino)-quinolin-5-yl]-methanone oxime] | 194 | 5.48

The remaining compounds from weak to strong by Ki [1], led by results:

melting point [°C] | Ki [1] [nM] | SMILES
145 | 34.4 | O=C(NCc1cccc2nc(N[C@@H]3CCc4ccccc43)ccc12)c1ccc(F)cc1 [Example 80, 4-Fluoro-N-[2-((R)-indan-1-ylamino)-quinolin-5-ylmethyl]-benzamide]
179.5 | 1.22 | ON=C(c1cccc(F)c1)c1cccc2nc(N[C@@H]3CCc4ccccc43)ccc12 [Example 96, (3-Fluoro-phenyl)-[2-((R)-indan-1-ylamino)-quinolin-5-yl]-methanone oxime]
